# From patent publication US20090030037A1, “Sustained Release Formulation and Dosing Schedules of Leukotriene Synthesis Inhibitor for Human Therapy” (deCODE Genetics ehf., priority 2005, published 2009)
# “Also recorded” adds a separate entry of the source.
# Tests used:
# [1] = Study DG-031-204: adverse events; format: in vivo; settings: for SAE Description: single patients
# Method: (§1) An additional single site, open label study was carried out to obtain biomarker and safety data on additional DG-031 doses (i.e., 1000 mg and 1500 mg). This study examined the safety, tolerability and dose-related effects of DG-031 on inflammatory biomarkers including: LTB4, hsCRP, and MPO. A total of 119 patients with a prior history of CAD and MI were randomized to receive either 1000 mg DG-031 (500 mg BID) or 1500 mg DG-031 (500 mg TID) daily for 4-6 weeks. Treatment with DG-031 in addition to the subject's standard care, medication, and treatment, was prescribed by the patient's cardiologist. A majority of the subjects received statin therapy before, during and after the study. Follow-up assessments were performed 2 weeks after the end of study drug administration.
# A total of 5 patients reported 8 serious adverse events (SAE). One death was reported during the trial. All SAE's were consistent with underlying CAD disorders (see Table 16). A total of 88 of 119 patients reported 203 adverse events. The most commonly reported adverse events (and number of cases reported) included: cold (27), headache (13), constipation/diarrhea (6/8), and vertigo (5).
# [2] = system: LTB4; experiment: Study DG-031-204: serum LTB4; format: in vivo, human; settings: after 4 weeks
# Method: as §1
# The biomarkers were analyzed as described in Example 1. Statistical analysis of the data was carried out using a one-sample t-test on change from baseline with a two-sided nominal significance level of 0.050. […]
# Serum was collected weekly for determination of LTB4 concentration in response to the treatment with DG-031. […] Stimulated LTB4 effects measured in study DG-031-204, as shown in the raw data set out in Table 12, appear consistent with projections from the exposure-response analysis based on data from studies DG-031-201 and DG-031-203. […]
# [3] = system: hsCRP; experiment: Study DG-031-204: hsCRP; format: in vivo, human; settings: after 4 weeks
# Method: as §1
# (§2) The biomarkers were analyzed as described in Example 1. Statistical analysis of the data was carried out using a one-sample t-test on change from baseline with a two-sided nominal significance level of 0.050. Biomarker concentrations were log-transformed and a simple last observation carried forward (LOCF) scheme was used to impute missing observations.
# Additionally, hsCRP was measured weekly and tended to decrease in the 1000 mg treatment group. […]
# [4] = system: Prostaglandin F; experiment: Study DG-031-204: Prostaglandin F (PGF); format: in vivo, human; settings: after 4 weeks of treatment
# Method: as §1, §2
# Prostaglandin F (PGF) was measured at 2-week intervals.
# [5] = 119 patients, 500 mg BID or TID, 4-6 weeks
smiles,measurement,setting,value
"O=C(O)[C@@H](c1ccc(OCc2ccc3ccccc3n2)cc1)C1CCCC1 [DG-031, (R)-(+)-alpha-cyclopentyl-4-(2-quinolinylmethoxy)-Benzeneacetic acid]",SAE Description,[1]; 1000 mg treatment,"Cardiac arrest,; also recorded: Subarachnoid hemorrhage; also recorded: Angiography,; also recorded: Repair of Carotid artery; also recorded: Myocardial infarction; also recorded: Unstable angina; also recorded: Myocardial infarction,"
same,SAE Description,[1]; 1500 mg treatment,Congestive heart failure
same,Adverse events reported,[1]; 119 patients,203
same,Cases of cold,[1]; 119 patients,27
same,Cases of constipation,[1]; 119 patients,6
same,Cases of diarrhea,[1]; 119 patients,8
same,Cases of headache,[1]; 119 patients,13
same,Cases of vertigo,[1]; 119 patients,5
same,Deaths reported during the trial,"[1]; 119 patients, 500 mg BID or TID",One
same,Patients reporting serious adverse events,[1]; [5],5
same,Serious adverse events (SAE) reported,[1]; [5],8
same,Patients reporting adverse events,[1]; of 119 patients,88
same,Serum LTB4 (% change from baseline),[2]; 1000 mg (500 mg BID),−73%
same,Serum LTB4 (% change from baseline),[2]; 1500 mg (500 mg TID),−50%
same,"hsCRP reduction, mean change from baseline",[3]; 1000 mg treatment group,20%
same,"hsCRP reduction, mean change from baseline",[3]; 1500 mg treatment group,3%
same,Trends in PGF,[4],No significant trends
